Where a SMILES comes first, the peptide text is derived from it. Where no end group is shown, it is not given here. [ ]: non-standard residue; d: D form. dPhe(F5) = N[C@H](Cc1c(F)c(F)c(F)c(F)c1F)C(=O)O; Igl = N[C@H](C(=O)O)C1Cc2ccccc2C1; Hyp = O=C(O)[C@@H]1C[C@@H](O)CN1; 2Thi = N[C@@H](Cc1cccs1)C(=O)O
Experiments:
[1] = cited from earlier work
[2] = molecular target: T1, bradykinin receptors in Rat Uterus (Rattus norvegicus, UniProt P25023); assay: Rat Uterus functional assay; format: cell-based
T1 construct: describes the Rat Uterus assay used to analyze the present compounds; from tissue; host or cells: isolated rat uterus
T1 sequence (P25023 1-396): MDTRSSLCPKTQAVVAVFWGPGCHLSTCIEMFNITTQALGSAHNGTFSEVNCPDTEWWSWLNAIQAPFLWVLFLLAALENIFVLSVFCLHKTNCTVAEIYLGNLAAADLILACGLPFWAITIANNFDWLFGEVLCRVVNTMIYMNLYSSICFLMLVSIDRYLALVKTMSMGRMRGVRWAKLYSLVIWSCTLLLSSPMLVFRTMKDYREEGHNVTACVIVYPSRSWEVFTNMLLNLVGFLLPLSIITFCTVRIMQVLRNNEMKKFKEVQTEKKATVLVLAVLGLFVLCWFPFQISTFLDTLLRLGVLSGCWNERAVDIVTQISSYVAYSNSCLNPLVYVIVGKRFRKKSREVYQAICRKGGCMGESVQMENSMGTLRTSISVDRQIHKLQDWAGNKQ
From the text: 4. Rat Uterus functional assay Trautshold, Handbook of Expt. Pharmacol. […] The Trautshold method was used without changes to the parameters. U.S. Pat. No. 4,693,993, at Column 14, line 10 gives a general description of data analysis for this assay. In this table, I=inhibitor, and numbers in parenthesis are pA2. Agonist activity are given as percent BK activity.

[3] = molecular target: T2, bradykinin receptors in Guinea Pig Ileum (Cavia porcellus, UniProt O70526); assay: Guinea Pig Ileum functional assay; format: cell-based; details: number in parenthesis is pA2, read-out: Ileum, pA2 (I=inhibitor) (converted)
T2 construct: describes the Guinea Pig Ileum assay used to analyze the present compounds; from tissue; host or cells: isolated guinea pig ileum
T2 sequence (O70526 1-372): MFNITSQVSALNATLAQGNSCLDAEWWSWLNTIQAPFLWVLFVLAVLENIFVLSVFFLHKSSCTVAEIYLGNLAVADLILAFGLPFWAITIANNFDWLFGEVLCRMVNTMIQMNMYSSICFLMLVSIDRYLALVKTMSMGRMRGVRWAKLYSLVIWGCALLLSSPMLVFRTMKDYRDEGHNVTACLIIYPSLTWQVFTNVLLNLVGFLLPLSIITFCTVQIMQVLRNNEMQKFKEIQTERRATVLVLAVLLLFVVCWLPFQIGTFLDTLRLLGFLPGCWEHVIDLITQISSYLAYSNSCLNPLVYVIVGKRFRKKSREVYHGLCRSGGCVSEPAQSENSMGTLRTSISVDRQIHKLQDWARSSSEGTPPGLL
From the text: 5. Guinea Pig Ileum functional assay
Trautshold, Handbook of Expt. Pharmacol. Vol 25, Springer Verlag pp 53-55 (1970) describes the Guinea Pig Ileum assay used to analyze the present compounds. The Trautshold method was used without changes to the parameters. U.S. Pat. No. 4,693,993, at Column 14, line 10 gives a general description of data analysis for this assay.
In this table, I=inhibitor, and numbers in parenthesis are pA2. Agonist activity are given as percent BK activity.

BK action = details: rabbits; subcutaneous injection; cited from earlier work
hypotensive action of BK = details: rats, cited from earlier work

| Molecule | Kb [2] [nM] | Kb [3] [nM] | other results |
| --- | --- | --- | --- |
| RPPGFSPFR [BK] | – | – | plasma half-life ([1]; caused by CPN): ≤ 15 s; cleavage by ACE on a single passage through the pulmonary circulation ([1]; single passage, pulmonary circulation): more than 99% |
| N=C(N)NCCC[C@H](NC(=O)[C@H](Cc1c(F)c(F)c(F)c(F)c1F)NC(=O)[C@@H](Cc1c(F)c(F)c(F)c(F)c1F)NC(=O)[C@H](CO)NC(=O)[C@@H](NC(=O)CNC(=O)[C@@H]1C[C@@H](O)CN1C(=O)[C@@H]1CCCN1C(=O)[C@H](CCCNC(=N)N)NC(=O)[C@@H](N)CCCNC(=N)N)C1Cc2ccccc2C1)C(=O)O [Compound B10230, Arg-Arg-Pro-Hyp-Gly-Igl-Ser-Df5f-f5f-Arg] | 1580 | 20 | – |
| N=C(N)NCCC[C@@H](N)C(=O)N[C@@H](CCCNC(=N)N)C(=O)N1CCC[C@H]1C(=O)N1C[C@H](O)C[C@H]1C(=O)NCC(=O)N[C@H](C(=O)N[C@@H](CO)C(=O)N[C@H](Cc1c(F)c(F)c(F)c(F)c1F)C(=O)N[C@@H](Cc1cccs1)C(=O)N[C@@H](CCCNC(=N)N)C(=O)O)C1Cc2ccccc2C1 [Compound B10058, DArg-Arg-Pro-Hyp-Gly-Igl-Ser-Df5f-Thi-Arg] | 6.31 | 12.6 | – |
| N=C(N)NCCC[C@@H](N)C(=O)N[C@@H](CCCNC(=N)N)C(=O)N1CCC[C@H]1C(=O)N1C[C@H](O)C[C@H]1C(=O)NCC(=O)N[C@H](C(=O)N[C@@H](CO)C(=O)N[C@H](Cc1c(F)c(F)c(F)c(F)c1F)C(=O)N[C@H](C(=O)N[C@@H](CCCNC(=N)N)C(=O)O)C1CCCCC1)C1Cc2ccccc2C1 [Compound B10180, DArg-Arg-Pro-Hyp-Gly-Igl-Ser-Df5f-Chg-Arg] | 6.31 | 7.94 | – |
| N=C(N)NCCC[C@H](NC(=O)[C@@H]1C[C@@H]2CCCC[C@@H]2N1C(=O)[C@@H](Cc1c(F)c(F)c(F)c(F)c1F)NC(=O)[C@H](CO)NC(=O)[C@@H](NC(=O)CNC(=O)[C@@H]1C[C@@H](O)CN1C(=O)[C@@H]1CCCN1C(=O)[C@H](CCCNC(=N)N)NC(=O)[C@@H](CCCNC(=N)N)NC(=O)[C@H](CCCCN)NC(=O)CCCCCCCCCCC(=O)N[C@@H](CCCCN)C(=O)N[C@H](CCCNC(=N)N)C(=O)N[C@@H](CCCNC(=N)N)C(=O)N1CCC[C@H]1C(=O)N1C[C@H](O)C[C@H]1C(=O)NCC(=O)N[C@H](C(=O)N[C@@H](CO)C(=O)N[C@H](Cc1c(F)c(F)c(F)c(F)c1F)C(=O)N1[C@H](C(=O)N[C@@H](CCCNC(=N)N)C(=O)O)C[C@@H]2CCCC[C@@H]21)C1Cc2ccccc2C1)C1Cc2ccccc2C1)C(=O)O [Compound B10158, αDDD-(Lys-Darg-Arg-Pro-Hyp-Gly-Igl-Ser-Df5f-Oic-Arg)2] | 3.16 | 10 | – |
| N=C(N)NCCC[C@H](NC(=O)[C@@H]1C[C@@H]2CCCC[C@@H]2N1C(=O)[C@@H](Cc1c(F)c(F)c(F)c(F)c1F)NC(=O)[C@H](CO)NC(=O)[C@@H](NC(=O)CNC(=O)[C@@H]1C[C@@H](O)CN1C(=O)[C@@H]1CCCN1C(=O)[C@H](CCCNC(=N)N)NC(=O)[C@@H](CCCNC(=N)N)NC(=O)CN(CCCNC(=N)N)CCCNC(=N)N)C1Cc2ccccc2C1)C(=O)O [Compound B10156, Gun2-bApg-DArg-Arg-Pro-Hyp-Gly-Igl-Ser-Df5f-Oic-Arg] | 5.01 | 12.6 | – |
| N=C(N)NCCC[C@H](NC(=O)[C@H](CCCCN)NC(=O)[C@@H](N)CCCCN)C(=O)N1CCC[C@H]1C(=O)N1C[C@H](O)C[C@H]1C(=O)NCC(=O)N[C@H](C(=O)N[C@@H](CO)C(=O)N[C@H](Cc1c(F)c(F)c(F)c(F)c1F)C(=O)N1[C@H](C(=O)O)C[C@@H]2CCCC[C@@H]21)C1Cc2ccccc2C1 [Compound B10148, Lys-Lys-Arg-Pro-Hyp-Gly-Igl-Ser-Df5f-Oic] | 63.1 | 1000 | – |
| N=C(N)NCCC[C@@H](N)C(=O)N[C@@H](CCCNC(=N)N)C(=O)N1CCC[C@H]1C(=O)N1C[C@H](O)C[C@H]1C(=O)NCC(=O)N[C@@H](Cc1cccs1)C(=O)N[C@@H](CO)C(=O)N1Cc2ccccc2C[C@@H]1C(=O)N[C@@H](Cc1c(F)c(F)c(F)c(F)c1F)C(=O)N[C@@H](CCCNC(=N)N)C(=O)O [Compound B10168, DArg-Arg-Pro-Hyp-Gly-Thi-Ser-DTic-f5f-Arg] | – | 3160 | Uterus, agonist activity as percent BK activity [2]: 4% |
| CC(C)C[C@H](NC(=O)[C@@H](Cc1c(F)c(F)c(F)c(F)c1F)NC(=O)[C@H](CO)NC(=O)[C@@H](NC(=O)CNC(=O)[C@@H]1C[C@@H](O)CN1C(=O)[C@@H]1CCCN1C(=O)[C@H](CCCNC(=N)N)NC(=O)[C@H](N)CCCNC(=N)N)C1Cc2ccccc2C1)C(=O)N[C@@H](CCCNC(=N)N)C(=O)O [Compound B10174, DArg-Arg-Pro-Hyp-Gly-Igl-Ser-Df5f-Leu-Arg] (H-[dR]RP[Hyp]G[Igl]S[dPhe(F5)]LR-OH; N-terminus and C-terminus assumed) | 7.94 | 6.31 | – |
| N=C(N)NCCC[C@@H](N)C(=O)N[C@@H](CCCNC(=N)N)C(=O)N1CCC[C@H]1C(=O)N1C[C@H](O)C[C@H]1C(=O)NCC(=O)N[C@H](C(=O)N[C@@H](CO)C(=O)N[C@H](Cc1c(F)c(F)c(F)c(F)c1F)C(=O)N[C@@H](Cc1c(F)c(F)c(F)c(F)c1F)C(=O)N[C@@H](CCCNC(=N)N)C(=O)O)C1Cc2ccccc2C1 [Compound B10232, DArg-Arg-Pro-Hyp-Gly-Igl-Ser-Df5f-f5f-Arg] | 7.94 | 20 | – |
| N=C(N)NCCC[C@@H](N)C(=O)N[C@@H](CCCNC(=N)N)C(=O)N1CCC[C@H]1C(=O)N[C@@H](C(=O)NCC(=O)N[C@H](C(=O)N[C@@H](CO)C(=O)N[C@H](Cc1c(F)c(F)c(F)c(F)c1F)C(=O)N1[C@H](C(=O)N[C@@H](CCCNC(=N)N)C(=O)O)C[C@@H]2CCCC[C@@H]21)C1Cc2ccccc2C1)C1Cc2ccccc2C1 [Compound B10216, DArg-Arg-Pro-DIgl-Gly-Igl-Ser-Df5f-Oic-Arg] | 39.8 | 158 | – |
| N=C(N)NCCC[C@@H](N)C(=O)N[C@@H](CCCNC(=N)N)C(=O)N1CCC[C@H]1C(=O)N1C[C@H](O)C[C@H]1C(=O)NCC(=O)N[C@H](C(=O)N[C@@H](CO)C(=O)N[C@@H](C(=O)N[C@@H](Cc1c(F)c(F)c(F)c(F)c1F)C(=O)N[C@@H](CCCNC(=N)N)C(=O)O)C1Cc2ccccc2C1)C1Cc2ccccc2C1 [Compound B10178, DArg-Arg-Pro-Hyp-Gly-Igl-Ser-DIgl-f5f-Arg] | 31600 | 398 | – |
| N=C(N)NCCC[C@@H](N)C(=O)N[C@@H](CCCNC(=N)N)C(=O)N1CCC[C@H]1C(=O)N1C[C@H](O)C[C@H]1C(=O)NCC(=O)N[C@@H](Cc1cccs1)C(=O)N[C@@H](CO)C(=O)N[C@H](Cc1c(F)c(F)c(F)c(F)c1F)C(=O)N(CC(=O)N[C@@H](CCCNC(=N)N)C(=O)O)C1CCCCCC1 [Compound B10204, DArg-Arg-Pro-Hyp-Gly-Thi-Ser-Df5f-Nc7G-Arg] | 631 | 12.6 | – |
| CC(C)C[C@H](NC(=O)[C@@H](Cc1c(F)c(F)c(F)c(F)c1F)NC(=O)[C@H](CO)NC(=O)[C@H](Cc1cccs1)NC(=O)CNC(=O)[C@@H]1C[C@@H](O)CN1C(=O)[C@@H]1CCCN1C(=O)[C@H](CCCNC(=N)N)NC(=O)[C@H](N)CCCNC(=N)N)C(=O)N[C@@H](CCCNC(=N)N)C(=O)O [Compound B10172, DArg-Arg-Pro-Hyp-Gly-Thi-Ser-Df5f-Leu-Arg] (H-[dR]RP[Hyp]G[2Thi]S[dPhe(F5)]LR-OH; N-terminus and C-terminus assumed) | 5.01 | 50.1 | – |
| DArg-Arg-Pro-Hyp-Gly-Igl-Ser-DIgl-Oic-Arg [Compound B9430] | – | – | duration of block of BK action (BK action): more than 24 hrs; bioavailability (hypotensive action of BK; intragastric administration): low; activity following intragastric administration (hypotensive action of BK; intragastric): active; duration of block of the hypotensive action of BK (hypotensive action of BK; single intravenous injection): more than four; duration of block of BK action (hypotensive action of BK; subcutaneous injection): 48 h |
| N=C(N)NCCC[C@H](NC(=O)[C@@H]1C[C@@H]2CCCC[C@@H]2N1C(=O)[C@@H](Cc1c(F)c(F)c(F)c(F)c1F)NC(=O)[C@H](CO)NC(=O)[C@@H](NC(=O)CNC(=O)[C@@H]1C[C@@H](O)CN1C(=O)[C@@H]1CCCN1C(=O)[C@H](CCCNC(=N)N)NC(=O)[C@@H](CCCNC(=N)N)NC(=O)C12CC3CC(CC(C3)C1)C2)C1Cc2ccccc2C1)C(=O)O [Compound B10154, Aca-DArg-Arg-Pro-Hyp-Gly-Igl-Ser-Df5f-Oic-Arg] | 6.31 | 12.6 | – |

— patent US5935932A, “Bradykinin antagonists containing pentafluorophenylalanine” (University Technology Corporation, priority 1998, dated 1999)
